Consider 3 compounds from patent US11850279B2, “Platforms and methods for optimizing host antigen presentation and host antitumor and antipathogen immunity” (OHIO STATE INNOVATION FOUNDATION, priority 2016, dated 2023).

Series [1] concerns CD8^+ T cells. As to the kind of experiment: In vivo CD8+ T cell priming by activated B cells / CABs. From the text:
In other words, in vivo CD8^+ T cell priming is increased by antecedent treatment with Flt-3L and GM-CSF.
In vivo CD8^+ T cell priming is increased by CHX treatment of activated B cells prior to injection. CHX can boost antigen presenting capacity by increasing survival of activated B cells.
While in this model, GM-CSF/Flt-3L administration improved the efficacy of OVA-loaded B cell treatment, it is important to note that this cytokine treatment can improve the efficacy of intervention with other antigen-loaded antigen presenting cells (e.g. dendritic cell-based vaccine platforms).

Series [2] concerns tumor. Kind of series: Anti-tumor activity of CABs (tumor size). Type of series: in vivo, mouse. How it is done: The zero-length cross linker EDAC promotes attachment of amino-containing molecules to activated B cells, such as CABs (Chlamydia activated B cells). In the bottom panel, the antigen presenting ability of activated B cells (or other professional APCs) can be enhanced by crosslinking desired antigen (protein or peptide) with EDAC prior to in vivo administration.
“Low dose” is therefore defined as 2 μg-8 μg per kg in humans for Flt-3L, and 0.5 μg-2 μg per kg in humans for GM-CSF. “High dose” is defined as any amount above 8 μg/kg of Flt-3L and above 2 μg/kg of GM-CSF.

In series [3] the test system is endogenous DCs. As to the kind of experiment: Activation of endogenous DCs by α-GC loaded CABs. The note with it: α-GC loading of CABs prior to in vivo administration. From the text: In addition to GM-CSF and Flt-3L, antigen presenting capabilities of activated B cells (or other professional APCs) are enhanced by in vitro loading of APCs with α-GC prior to in vivo administration.

The test system of series [4] is tumor. Particulars: cited from earlier work.
The subject of series [5] is NKT cells. The note with it: human, in vivo; cited from earlier work.

As for `C[C@@H]1C[C@@H]([C@H](O)CC2CC(=O)NC(=O)C2)C(=O)[C@@H](C)C1` [CHX, Cycloheximide], the “in vivo CD8^+ T cell priming” value in series [1] (CHX treatment of activated B cells prior to injection) is “increased”.

For `CCN=C=NCCCN(C)C` [EDAC, 1-ethyl 1-3-(3-dimethylaminopropyl)-carbodiimide], the antitumor therapeutic activity result in series [2] (peptide chemically conjugated to CABs using EDAC vs simple peptide pulsing/loading) is given as “increases antitumor therapeutic activity”.

`CCCCCCCCCCCCCCCCCCCCCCCCCC(=O)N[C@@H](CO[C@H]1O[C@H](CO)[C@H](O)[C@H](O)[C@H]1O)[C@H](O)[C@H](O)CCCCCCCCCCCCCC` [α-GC, α-Galactosylceramide]: the “effector function of primed antigen-specific CD8^+ T cells” value in series [1] (α-GC-loaded CABs) is on record as “enhance”. Moreover, in series [3], the “activation of endogenous DCs” value is given as “dramatically increase”. The tumor growth entry in series [4] is listed as “inhibit tumor growth”. For the same compound, the “NKT cells in the peripheral blood of treated cancer patients” value in series [5] is “fell to undetectable levels”. The tumor size result in series [2] (α-GC loaded activated B cells, effect dependent on NKT cells) is “more effectively reduce tumor size”.
